From US20210315893A1 (Galapagos NV, priority 2017, published 2021)

Legend:
[1] = target: T1, human GPCR sphingosine 1-phosphate receptor 2 (Homo sapiens, UniProt O95136); assay: S1PR2 antagonist Ca2+ flux assay; format: cell-based; conditions: antagonist mode, CHO-S1PR2 cells, S1P at EC80, Ca2+ fluorescence; read-out: S1P2 EC50 (nM), S1P2 antagonist EC50
T1 construct: host or cells: CHO
Method in brief: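 CHO cells stably expressing human S1PR2, serum-starved 1 h, Fluo8-loaded; compound-evoked Ca2+ fluorescence read 3 min (agonist mode), then after 15 min S1P at EC80 added and read 3 min (antagonist mode). Max/baseline fluorescence ratios normalised to vehicle and S1P EC100 or EC50 controls; EC50 derived.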

[2] = target: T2, human GPCR sphingosine 1-phosphate receptor 1 (Homo sapiens, UniProt P21453); assay: S1PR1 selectivity Ca2+ flux assay (antagonist readout); format: cell-based; conditions: antagonist readout, CHO cells overexpressing human S1PR1 and Gq, S1P at EC80 (6 nM); read-out: S1P1 EC50 (nM), S1P1 antagonist EC50
T2 construct: host or cells: CHO
Method in brief: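 CHO cells stably overexpressing human S1PR1, starved 1 h in 0.1% FAF BSA medium, then Fluo 8 dye-loaded. Compound added, then after 15 min at 37 °C, S1P-evoked Ca2+ flux recorded. Maximal signal/background ratio normalized to controls as % inhibition; IC50 from four-parameter logistic fit.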

[3] = target: T3, human GPCR sphingosine 1-phosphate receptor 5 (Homo sapiens, UniProt Q9H228); assay: S1PR5 selectivity Ca2+ flux assay (antagonist readout); format: cell-based; conditions: CHO cells overexpressing human S1PR5 and Gq, agonist at EC80 (20 nM), read-out: S1P5 EC50 (nM), S1P5 antagonist EC50
T3 construct: host or cells: CHO
Method in brief: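 CHO cells stably coexpressing human S1PR5 and Gq were serum-starved, Fluo 8-loaded and preincubated 15 min at 37° C with compound. They were then stimulated at EC80 with an S1PR5-specific agonist, and calcium fluorescence was recorded for 3 min. Peak/baseline ratios were normalized to controls and fitted to a four-parameter IC50 equation.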

S1PR2 = target: T4, S1PR2 (Homo sapiens, UniProt O95136); assay: S1PR2 binding assay (competition with radioactively labeled S1P, SpA); conditions: membranes from stable cell line over expressing S1PR2, SpA beads; read-out: S1P2 EC50 (nM), S1PR2 binding EC50
T4 construct: expressed in transfected cells
Method in brief: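 Competition with [3H]S1P for membranes from a stable S1PR2-overexpressing cell line, 20 μg/well, captured on PVT-WGA SPA beads, in 20 mM Tris pH 7.5, 10 mM MgCl2, 100 mM NaCl, 0.4% fatty-acid-free BSA, 1 mM Na3VO4. 2 h at room temperature, then centrifugation and scintillation counting.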

HFL-1 cells [4] = assay: IL-8 production assay (S1P induced IL-8); format: cell-based; conditions: Homo sapiens, HFL1; S1P (1 μM) induced IL-8 in HFL-1 cells, starvation medium without HSA; read-out: IL8 EC50
Method in brief: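 HFL-1 human fetal lung fibroblasts were starved in F12K/1% FBS, then given compound for 1 h (10-point, 1/3 dilution, 30 μM top, 0.3% DMSO final). S1P was added at 1 μM final for 16–24 h at 37 °C, and secreted IL-8 in supernatant quantified by ELISA.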

HFL-1 cells [5] = assay: IL8 assay in the presence of Human Serum Albumin; conditions: HFL1, read-out: HSA IL8 EC50

T2 sequence (P21453 whole entry): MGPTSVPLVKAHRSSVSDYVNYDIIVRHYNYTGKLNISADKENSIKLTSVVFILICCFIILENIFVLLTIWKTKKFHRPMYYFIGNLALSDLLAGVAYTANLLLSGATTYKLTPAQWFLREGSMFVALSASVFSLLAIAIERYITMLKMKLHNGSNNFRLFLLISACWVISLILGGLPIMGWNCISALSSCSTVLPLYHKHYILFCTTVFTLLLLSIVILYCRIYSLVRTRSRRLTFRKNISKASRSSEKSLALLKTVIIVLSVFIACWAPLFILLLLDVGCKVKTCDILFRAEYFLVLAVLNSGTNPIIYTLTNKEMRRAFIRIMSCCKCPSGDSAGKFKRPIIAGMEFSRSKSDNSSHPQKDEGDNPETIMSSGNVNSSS
T3 sequence (Q9H228 whole entry): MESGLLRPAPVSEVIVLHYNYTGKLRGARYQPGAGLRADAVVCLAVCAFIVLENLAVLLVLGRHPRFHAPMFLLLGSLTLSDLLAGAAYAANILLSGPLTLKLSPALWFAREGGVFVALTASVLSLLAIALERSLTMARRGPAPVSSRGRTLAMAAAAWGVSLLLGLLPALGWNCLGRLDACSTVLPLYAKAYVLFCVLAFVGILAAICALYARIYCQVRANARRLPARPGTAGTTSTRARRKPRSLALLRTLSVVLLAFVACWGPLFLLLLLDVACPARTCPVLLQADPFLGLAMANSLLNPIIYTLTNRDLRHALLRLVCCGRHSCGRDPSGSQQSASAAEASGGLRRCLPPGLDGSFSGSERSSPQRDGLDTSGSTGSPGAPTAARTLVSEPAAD
T4 sequence (O95136 whole entry): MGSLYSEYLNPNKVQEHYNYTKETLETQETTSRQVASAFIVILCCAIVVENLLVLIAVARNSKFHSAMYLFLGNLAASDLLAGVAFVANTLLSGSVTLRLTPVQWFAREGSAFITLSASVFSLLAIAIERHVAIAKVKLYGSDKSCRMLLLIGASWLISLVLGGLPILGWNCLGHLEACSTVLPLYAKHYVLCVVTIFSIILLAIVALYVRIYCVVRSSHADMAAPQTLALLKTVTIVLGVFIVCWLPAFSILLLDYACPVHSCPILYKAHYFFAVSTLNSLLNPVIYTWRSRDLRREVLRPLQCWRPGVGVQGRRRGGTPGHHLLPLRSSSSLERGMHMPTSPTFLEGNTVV
T1 sequence (O95136 whole entry): as above

SMILES | EC50 [1] [nM] | EC50 [2] [nM] | EC50 [3] [nM] | EC50 (S1PR2) [nM] | EC50 (HFL-1 cells [4]) [nM] | EC50 (HFL-1 cells [5]) [nM]
CCOc1cc2[nH]c(Cc3nn(CC(=O)N4CCOCC4)c(=O)c4ccccc34)nc2cc1C(F)(F)F [Compound 168, 4-[[6-ethoxy-5-(trifluoromethyl)-1H-benzimidazol-2-yl]methyl]-2-(2-morpholino-2-oxo-ethyl)phthalazin-1-one] | 11.9 | ≥ 19800 | 19800 | 86.4 | 4.57 | 28.1
CCOc1cc2[nH]c(Cc3nn(CC(=O)N4CCOCC4)c(=O)c4ccccc34)nc2cc1C#N [Compound 170, 6-ethoxy-2-[[3-(2-morpholino-2-oxo-ethyl)-4-oxo-phthalazin-1-yl]methyl]-1H-benzimidazole-5-carbonitrile] | 42.5 | ≥ 19800 | 19800 | 112 | 10.6 | 137
CC(F)(F)COc1cc2[nH]c(Cc3nn(CC(=O)N4CCOCC4)c(=O)c4ccccc34)nc2cc1Cl [Compound 172, 4-[[5-chloro-6-(2,2-difluoropropoxy)-1H-benzimidazol-2-yl]methyl]-2-(2-morpholino-2-oxo-ethyl)phthalazin-1-one] | 7.57 | ≥ 19800 | 19800 | 15.8 | 29.1 | 33.4
N#Cc1cc2[nH]c(Cc3nn(CC(=O)N4CCOCC4)c(=O)c4ccccc34)nc2cc1OCC(F)(F)F [Compound 175, 2-[[3-(2-morpholino-2-oxo-ethyl)-4-oxo-phthalazin-1-yl]methyl]-6-(2,2,2-trifluoroethoxy)-3H-benzimidazole-5-carbonitrile] | 11.4 | ≥ 19800 | 19800 | 78.9 | 10.9 | 61.6
CN(C)C1CCN(C(=O)Cn2nc(Cc3nc4cc(OCC(F)F)c(C#N)cc4[nH]3)c3ccccc3c2=O)C1 (stereo not drawn) [Compound 176, 6-(2,2-difluoroethoxy)-2-[[3-[2-[3-(dimethylamino)pyrrolidin-1-yl]-2-oxo-ethyl]-4-oxo-phthalazin-1-yl]methyl]-3H-benzimidazole-5-carbonitrile] | 489 | ≥ 19800 | 19800 | 386 | 116 | 618
CC1(O)CCN(C(=O)Cn2nc(Cc3nc4cc(OCC(F)F)c(C#N)cc4[nH]3)c3ccccc3c2=O)C1 (stereo not drawn) [Compound 201, 6-(2,2-difluoroethoxy)-2-[[3-[2-(3-hydroxy-3-methyl-pyrrolidin-1-yl)-2-oxo-ethyl]-4-oxo-phthalazin-1-yl]methyl]-3H-benzimidazole-5-carbonitrile] | 44.8 | 13200 | 19800 | 138 | 63.8 | 152
CN(C)C1CCN(C(=O)Cn2nc(Cc3nc4cc(C#N)c(OCC(F)F)cc4[nH]3)c3c(c2=O)CCCC3)C1 (stereo not drawn) [Compound 204, 6-(2,2-difluoroethoxy)-2-[[3-[2-[3-(dimethylamino)pyrrolidin-1-yl]-2-oxo-ethyl]-4-oxo-5,6,7,8-tetrahydrophthalazin-1-yl]methyl]-1H-benzimidazole-5-carbonitrile] | 117 | ≥ 19800 | 19800 | 296 | 120 | 546
N#Cc1cc2nn(Cc3nn(CC(=O)NC4CCCC4)c(=O)c4ccccc34)cc2cc1OCC(F)F [Compound 208, 2-[4-[[6-cyano-5-(2,2-difluoroethoxy)indazol-2-yl)methyl]-1-oxo-phthalazin-2-yl]-N-cyclopentyl-acetamide] | 10800 | ≥ 19800 | 19800 | 1510 | 9950 | 3320

The remaining lines, values ahead:

EC50 [1] [nM] | EC50 [2] [nM] | EC50 [3] [nM] | EC50 (S1PR2) [nM] | EC50 (HFL-1 cells [4]) [nM] | EC50 (HFL-1 cells [5]) [nM] | SMILES
19.9 | ≥ 19800 | 19800 | 375 | 48.7 | 400 | O=C(Cn1cc(Cc2nc3cc(OCC(F)F)c(Cl)cc3[nH]2)c2ccccc2c1=O)N1CCOCC1 [Compound 169, 4-[6-Chloro-5-(2,2-difluoro-ethoxy)-1H-benzoimidazol-2-ylmethyl]-2-(2-morpholin-4-yl-2-oxo-ethyl)-2H-isoquinolin-1-one]
34.9 | ≥ 19800 | 19800 | 56.8 | 20.1 | 58.9 | COCCOc1cc2[nH]c(Cc3nn(CC(=O)N4CCOCC4)c(=O)c4ccccc34)nc2cc1Cl [Compound 174, 4-[[5-chloro-6-(2-methoxyethoxy)-1H-benzimidazol-2-yl]methyl]-2-(2-morpholino-2-oxo-ethyl)phthalazin-1-one]
57.1 | ≥ 19800 | 19800 | 124 | 18.6 | 120 | C[C@@H]1CN(C(=O)Cn2nc(Cc3nc4cc(OCC(F)F)c(C#N)cc4[nH]3)c3ccccc3c2=O)C[C@H](C)O1 [Compound 177, 6-(2,2-difluoroethoxy)-2-[[3-[2-[(2S,6R)-2,6-dimethylmorpholin-4-yl]-2-oxo-ethyl)-4-oxo-phthalazin-1-yl]methyl]-3H-benzimidazole-5-carbonitrile]
118 | ≥ 19800 | 19800 | 188 | 160 | 504 | N#Cc1cc2[nH]c(Cc3nn(CC(=O)NC4CCOC4)c(=O)c4ccccc34)nc2cc1OCC(F)F (stereo not drawn) [Compound 178, 2-[4-[[6-cyano-5-(2,2-difluoroethoxy)-1H-benzimidazol-2-yl]methyl]-1-oxo-phthalazin-2-yl]-N-THF-3-yl-acetamide]
107 | ≥ 19800 | 19800 | 207 | 352 | 353 | O=C(Cn1nc(Cc2nc3cc(OCC(F)F)c(F)cc3[nH]2)c2c(c1=O)CCCC2)N1CCOCC1 [Compound 179, 4-[[5-(2,2-difluoroethoxy)-6-fluoro-1H-benzimidazol-2-yl]methyl]-2-(2-morpholino-2-oxo-ethyl)-5,6,7,8-tetrahydrophthalazin-1-one]
416 | ≥ 19800 | 19800 | 486 | 74.8 | 210 | N#Cc1cc2nc(Cc3nn(CC(=O)N4CCC[C@H]4CO)c(=O)c4ccccc34)[nH]c2cc1OCC(F)F [Compound 198, 6-(2,2-difluoroethoxy)-2-[[3-[2-[(2S)-2-(hydroxymethyl)pyrrolidin-1-yl]-2-oxo-ethyl]-4-oxo-phthalazin-1-yl]methyl]-1H-benzimidazole-5-carbonitrile]
194 | ≥ 19800 | 19800 | 235 | 123 | 382 | N#Cc1cc2nn(Cc3nn(CC(=O)N4CCOCC4)c(=O)c4ccccc34)cc2cc1OCC1CC1 [Compound 209]
39.7 | ≥ 19800 | 19800 | 142 | 46.5 | 159 | N#Cc1cc2[nH]c(Cc3nn(CC(=O)N4C[C@H](O)[C@@H](O)C4)c(=O)c4ccccc34)nc2cc1OCC(F)F [Compound 211, 6-(2,2-difluoroethoxy)-2-[[3-[2-[(3S,4S)-3,4-dihydroxypyrrolidin-1-yl]-2-oxo-ethyl]-4-oxo-phthalazin-1-yl]methyl]-3H-benzimidazole-5-carbonitrile]
